Consider 16 substances from patent publication US20260174875A1 (Novo Nordisk A/S, priority 2023, published 2026).

As usually defined, the EC50 is the concentration giving half of the maximal effect.

Like-named read-outs stand apart in the source and are kept apart here. Numbered stars: 1 amine (or outer) side, 2 acyl side, 3 side chain; on linkers, the order of the positions; unused ones are H or OH. Square brackets hold non-standard residues; d marks the D form. Side chains are listed from the residue outwards. * marks the point of attachment. C20 diacid = O=C(O)CCCCCCCCCCCCCCCCCCC(=O)*; C18 diacid = O=C(O)CCCCCCCCCCCCCCCCC(=O)*; C16 diacid = O=C(O)CCCCCCCCCCCCCCC(=O)*; γGlu = O=C(O)[C@H](CCC(=O)[*:2])N[*:1]; AEEA = NCCOCCOCC(=O)O; Aib = CC(C)(N)C(=O)O

In the assay the target is T1, human GIP receptor (hGIPR) (Homo sapiens, UniProt P48546).
T1 construct: expressed in transfected cells
T1 sequence (P48546 22-466): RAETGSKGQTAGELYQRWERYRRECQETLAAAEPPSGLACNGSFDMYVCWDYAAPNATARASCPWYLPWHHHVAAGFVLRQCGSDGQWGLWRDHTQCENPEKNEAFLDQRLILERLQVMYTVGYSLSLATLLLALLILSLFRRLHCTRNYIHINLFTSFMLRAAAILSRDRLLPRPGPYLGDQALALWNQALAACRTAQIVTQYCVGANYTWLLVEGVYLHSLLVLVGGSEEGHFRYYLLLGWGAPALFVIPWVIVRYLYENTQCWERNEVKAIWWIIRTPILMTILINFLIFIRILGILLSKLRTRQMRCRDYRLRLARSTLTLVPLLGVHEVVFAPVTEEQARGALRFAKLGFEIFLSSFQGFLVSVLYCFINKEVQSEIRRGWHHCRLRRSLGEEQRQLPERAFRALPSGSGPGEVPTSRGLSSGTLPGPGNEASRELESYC
Briefly: GIP receptor assay, method A (CRE-luciferase reporter, BHK cells). The assay is classed as cell-based. The method in brief: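 BHK cells co-expressing hGIPR and a CRE-luciferase reporter, plated 21-23 h before assay, stimulated 3 h at 37 °C with compounds (7-point 10-fold titration, duplicates) in ovalbumin-containing DMEM buffer with or without 1% HSA final. Luminescence read; EC50 (pM) from four-parameter logistic fit with shared Hill slope.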
On the technique in general: A reporter such as luciferase makes a cellular process visible.

The mark [1] stands for this setting: hGIPR Potency, 1% HSA, EC50, method A, in the presence of 1% HSA.
[2] abbreviates: method A, absence of HSA, read-out: hGIPR Potency, no HSA, EC50.

Turning to “Y[Aib]EGTFTSDYSILLEEQAAREFIEWLLAGGPSSGAGQAPGQAPGASHLSTAQTQRLSAELHRLK([AEEA-AEEA-γGlu-C18 diacid])TLPRTETGSGSP-NH2 [Compound 56]”, the EC50 was 8.48 pM under setting [1] and 2.65 pM under setting [2].

Regarding “Y[Aib]EGTFTSDYSILLEEQAAREFIEWLLAGGPSK([AEEA-AEEA-γGlu-C18 diacid])GEASHLSTAQTARLSAELHELATLPRTETGSGSP-NH2 [Compound 35]”, the EC50 under setting [2] stood at 1.97 pM.

As for “Y[Aib]EGTFTSDYSILLEEQAAREFIEWLLAGGPSSGAGQAPGASHLSTAQTQRLSAELHK([AEEA-AEEA-γGlu-C18 diacid])LATLPRTETGSGSP-NH2 [Compound 97]”, the 50% effective concentration (EC50) under setting [1] amounted to 8.38 pM and the EC50 under setting [2] turned out to be 2.3 pM.

On to “Y[Aib]EGTFTSDYSILLEEQAAREFIEWLLAGGPSSGAGQAPGQAPGASHLSTAALGRLSAELHK([AEEA-AEEA-γGlu-C18 diacid])LATLPRTETGSGSP-NH2 [Compound 53]”, for which the EC50 reads like this: under setting [1], 14.6 pM; under setting [2], 3.25 pM.

Consider “H[Aib]HGTFTSDYSILLEEQAAREFIEWLLAGGPSK([AEEA-AEEA-γGlu-C16 diacid])GEASQLSTAALGRLSAELHRLADLPRTETGSGSP-NH2 [Compound 62]”, for which the half-maximal effective concentration (EC50) is, setting by setting: under setting [1], 47.2 pM; (hGIPR Potency, no HSA, EC50, method A, absence of HSA) 2.26 pM.

For “Y[Aib]EGTFTSDYSILLEEQAAREFIEWLLAGGPSSGEASHLSTAQTQRLSAK([AEEA-AEEA-γGlu-C18 diacid])LHRLATLPRTETGSGSP-NH2 [Compound 79]”, the EC50 worked out at 24.7 pM under setting [1] and 4.7 pM under setting [2].

Regarding “Y[Aib]EGTFTSDYSILLEEQAAREFIEWLLAGGPSSGALQAPGQAPLASHLSTAQTQRLSAELHK([AEEA-AEEA-γGlu-C20 diacid])LATLPRTETGSGSP-NH2 [Compound 99]”, the EC50 under setting [1] came out at 7.41 pM and the EC50 under setting [2] is 2.09 pM.

With “H[Aib]HGTFTSDYSILLEEQAAREFIEWLLAGGPSK([AEEA-AEEA-γGlu-C16 diacid])GEASELSTAALGRLSAELHRLATLPRTETGSGSP-NH2 [Compound 17]”, the EC50 by setting is: under setting [1], 36.9 pM; under setting [2], 5.04 pM.

“H[Aib]HGTFTSDYSILLEEQAAREFIEWLLAGGPSRGEASHLSTAQTQRLSAELHK([AEEA-AEEA-γGlu-C18 diacid])LATLPRTETGSGSP-NH2 [Compound 69]”: the EC50 turned out to be 8.05 pM under setting [1] and 1.9 pM under setting [2].

As for “H[Aib]HGTFTSDYSILLEEQAAREFIEWLLAGGPSK([AEEA-AEEA-γGlu-C18 diacid])GEASQLSTAALGRLSAELHTLATLPRTETGSGSP-NH2 [Compound 63]”, the EC50 came out at 63.2 pM under setting [1] and 1.6 pM under setting [2].

Regarding “Y[Aib]EGTFTSDYSILLEEQAAREFIEWLLAGGPSK([AEEA-AEEA-γGlu-C18 diacid])GGQAPGQAPGEASHLSTAQTQRLSAELHELATLPRTETGSGSP-NH2 [Compound 38]”, the EC50 by setting is: under setting [1], 336 pM; under setting [2], 1.37 pM.

With “H[Aib]HGTFTSDYSILLEEQAAREFIEWLLAGGPSSGAGQAPGQAPGASHLSTAQTQRLSAK([AEEA-AEEA-γGlu-C18 diacid])LHRLATLPRTETGSGSP-NH2 [Compound 78]”, the EC50 runs as follows: under setting [1], 10.4 pM; under setting [2], 3.49 pM.

For “H[Aib]HGTFTSDYSILLEEQAAREFIEWLLAGGPSSGEASHLSTAQTQRLSAK([AEEA-AEEA-γGlu-C18 diacid])LHRLATLPRTETGSGSP-NH2 [Compound 82]”, the EC50 stood at 19.1 pM under setting [1] and 3.7 pM under setting [2].

As to “H[Aib]HGTFTSDYSILLEEQAAREFIEWLLAGGPSSGEASHLSTAALGRLSAELHRLK([AEEA-AEEA-γGlu-C18 diacid])TLPRTETGSGSP-NH2 [Compound 89]”, the EC50 under setting [1] worked out at 30.6 pM and the EC50 under setting [2] is 6.47 pM.

Take “H[Aib]HGTFTSDYSILLEEQAAREFIEWLLAGGPSK([AEEA-AEEA-γGlu-C18 diacid])GEASHLSTAQTARLSAELHELATLPRTETGSGSP-NH2 [Compound 36]”: the EC50 is 226 pM under setting [1] and 1.96 pM under setting [2].

With “Y[Aib]EGTFTSDYSILLEEQAAREFIEWLLAGGPSSGEASHLSTAQTQRLSAELHK([AEEA-AEEA-γGlu-C18 diacid])LATLPRTETGSGSP-NH2 [Compound 50]”, the EC50 under setting [1] was 15.1 pM and the EC50 under setting [2] turned out to be 2.36 pM.
